# Legend:
# [1] = test system: adjuvant arthritis; assay: Adjuvant arthritis (AA) in rats; type: in vivo, Lewis rats
# [2] = test system: experimental DTH reaction in mice; assay: In vivo bioassay of inhibition of experimental DTH reactivity (oxazolone, ear swelling); parameters: key to effect on DTH (printed in the Dose column): “N.E.” indicates that no effect was observed at the tested dosage range of 0.000004-4 μg/gm mouse; conditions: for DTH / effective dose range for inhibition ≧50% of control: CD1 mice; for effective dose range for inhibition ≧50% of control: Table XXIIIC footnotes, DTH; for effect on DTH (printed in the Dose column): tested dosage range of 0.000004-4 μg/gm mouse s.c.
# Method: Groups of inbred BALB/c (Jackson Laboratories, Bar Harbor, Me.) or of outbred CD1 (Weizmann Institute Animal Breeding Center, Rehovot, Israel) mice are sensitized on the shaved abdominal skin with 100 μl of 2% oxazolone (OX) in acetone/olive oil (4/1, v/v) applied topically. DTH sensitivity is elicited 5 days later as follows: mice are challenged with 20 μl of 0.5% OX (10 μl administered topically to each side of the ear) in acetone/olive oil. A constant area of the ear is measured immediately before challenge and 24 and 48 h later with a Mitutoyo engineer's micrometer. The individual measuring ear swelling is blinded to the identity of the groups of mice. The increment (Δ) of ear swelling is expressed as the mean in units of 10^−2 mm or 10^−4 inch (+SE) depending on the micrometer that is used. Percent inhibition is calculated as follows: […]
# Mice are treated with LMWH again Example 5.1, injected the day before primary sensitization to OX. On the fifth day after sensitization to OX, the 10 mice are challenged to induce a DTH reaction, as described above.
# The positive control is the DTH reaction elicited in immunized mice in the absence of treatment with LMWH. The negative control is the background swelling produced by the antigen in naive (non-immunized) mice. […]
# BALB/c mice (at least 5 mice per group) were sensitized on the shaved abdomen with 3% 4-ethoxymethylene-2-phenyl oxazolone (OX; BDH-Chemicals, GB) in acetone/olive oil applied topically. DTH sensitivity was elicited 5 days later as follows. Mice were challenged with 0.5% OX in acetone/olive oil. The ear was measured immediately before challenge and 24 h later with Mitutoyo engineer's micrometer (Japan). The individual measuring the swelling of the ear was blinded to the identity of the groups of mice. To interfere with DTH response, the low molecular weight immuno-regulatory fractions, diluted in PBS, were administrated subcutaneously into the back of the treated mice at the indicated time schedules and concentrations. Treated mice were inspected during and after (>2 months) the treatment and no major side-effects were observed clinically.
# In particular, CD1 mice (available from the Weizmann Institute Animal Breeding Center, Rehovot, Israel), 4-12 mice per group were treated as described in Section 5.2 or 6.8.
# [3] = test system: mortality after irradiation; assay: Radioprotective effects in gamma-irradiated mice; type: in vivo, BALB/c mice; conditions: 750 rads; three administrations; 300 ng H-9392, 1 μg glucosamine
# Method: Groups of female BALB/c mice, 8 weeks old, 5-10 mice per group, were injected subcutaneously with either saline (0.1 ml, control), H-9392 (30 ng/mouse), or glucosamine (10,000 ng/mouse) 1 day before irradiation, and weekly thereafter until termination of the experiment on day 30. All the mice were irradiated to a dose of 700 rads using a ^60Co gamma radiation source.
# The mortality within the different groups of mice was then scored over a 30 day period. […] The group of mice which had been injected with glucosamine also fared better than the control group, showing a 20% mortality rate in the same period.
# In a separate experiment, groups of BALB/c mice (5 mice to a group) were likewise exposed to 750 rads of gamma-rays, except that these groups of mice were treated with test substances (saline at 0.1 ml per mouse; H-9392 at 0.3, 3, 30 and 300 ng/mouse; and glucosamine at 1, 10 and 100 μg/mouse) on the day before irradiation, on the sixth day after irradiation, and once again on the thirteenth day after irradiation only. All treatment ceased after the third and last administration.
# [4] = test system: IDDM of NOD mice; assay: Insulin dependent diabetes mellitus (IDDM) of NOD mice; type: in vivo; conditions: H-9392 30 ng, glucosamine 10,000 ng; all the control mice had died (FIG. 41A)
# [5] = test system: LPS-induced inflammation of the cornea; assay: LPS-induced inflammation of the rat cornea; type: in vivo, Lewis rats
# Method: LPS-induced inflammation of the cornea is TNF dependent, as shown by the work of Vanderhagen, C. and co-workers in the Netherlands, “Kinetics of Intraocular TNF and IL-6 in Endotoxin-Induced Uveitis in the Rat,” submitted for publication. Using a 30-gauge needle, LPS (5 ng) was injected into the cornea of Lewis rats. After one day, separate groups of rats, 2 to a group (or 4 eyes to a group) were then injected subcutaneously with phosphate-buffered saline (0.05 ml) or H-1020 (at a dose of either 50 ng/rat or 200 ng/rat). The effects, if any, were scored as follows:
# in which the sum of the points is used as the total score.
# [6] = test system: secretion of active TNF-α by activated human CD4+ T cells; assay: Bioassay of TNF-α activity using human CD4+ T cells derived from PBLs (human PBL bioassay); type: cell-based; conditions: for Bioassay of TNF Activity: Table XXIII, conc range of 1 μg/ml-0.01 pg/ml, inconsistent = same result not obtained for all three bioassays; for “R” value: no effect, zero assigned
# Description: Non adherent cells were eluted and washed.
# Nophar, Y. et al. J. Immunol. (1988) 140 (10):3456-3460.
# [7] = Table XXIIIA, no effect, zero assigned
smiles,measurement,setting,value
"N[C@H]1C(O)O[C@H](CO)[C@H](O)[C@@H]1O (stereo partly drawn) [GalN, D-Galactosamine, reference compound]",effect on AA,"[1]; different dosages, s.c. weekly (FIG. 38C)",inhibitory effects but to a much lesser degree
same,DTH,"[2]; Table XXIIIC, 0.00004 μg/gm s.c., control 18.9 ± 0.7",8.9 ± 0.6 10^−2 mm
same,DTH,"[2]; Table XXIIIC, 0.12 μg/gm s.c., control 18.9 ± 0.7",6.5 ± 0.7 10^−2 mm
"N[C@@H](C=O)[C@@H](O)[C@H](O)[C@H](O)CO [GlcN, 2-amino-2-deoxy-D-glucose, reference compound]",activity in suppressing mortality after irradiation,[3],moderate activity
same,mice died by age 5 months,[4],about half
same,DTH,"[2]; Table XXIIIC, 0.000012 μg/gm s.c., control 19.7 ± 1.2",5 ± 0.7 10^−2 mm
same,DTH,"[2]; Table XXIIIC, 0.4 μg/gm s.c., control 19.7 ± 1.2",2.3 ± 0.9 10^−2 mm
"O=S(=O)(O)N[C@H]1C(O)O[C@H](CO)[C@@H](O)[C@@H]1OS(=O)(=O)O (stereo partly drawn) [GlcN-2, 3S, D-Glucosamine-2,3-disulfate, reference compound]",effective dose range for inhibition ≧50% of control,[2]; s.c.,narrow
"O=S(=O)(O)N[C@H]1C(O)O[C@H](COS(=O)(=O)O)[C@@H](O)[C@@H]1O (stereo partly drawn) [GlcN-2, 6S, D-Glucosamine-2,6-disulfate, reference compound]",effective dose range for inhibition ≧50% of control,[2]; s.c.,narrow
"O=S(=O)(O)N[C@H]1C(O)O[C@H](CO)[C@@H](O)[C@@H]1O (stereo partly drawn) [GlcN-2S, D-Glucosamine-2-N-sulfate, reference compound]",“R” value,"[2]; Table XXIIIC, no effect, zero assigned",0 % × (μg/gm)^−1
same,effect on DTH (printed in the Dose column),[2]; Table XXIIIC,N.E.
"N[C@H]1C(O)O[C@H](CO)[C@@H](O)[C@@H]1OS(=O)(=O)O (stereo partly drawn) [GlcN-3S, D-Glucosamine-3-sulfate, reference compound]",effect on DTH (printed in the Dose column),[2]; Table XXIIIC,N.E.
"N[C@H]1C(O)O[C@H](COS(=O)(=O)O)[C@@H](O)[C@@H]1O (stereo partly drawn) [GlcN-6S, D-Glucosamine-6-sulfate, reference compound]",effect on DTH (printed in the Dose column),[2]; Table XXIIIC,N.E.
"O=C(O)C1=C[C@H](O)[C@@H](O)[C@H](O[C@H]2[C@H](O)[C@@H](NS(=O)(=O)O)C(O)O[C@@H]2COS(=O)(=O)O)O1 (stereo partly drawn) [H-1020, 4-deoxy-4-en-iduronic acid-(α-1,4)-2-deoxy-2-N-sulfate-6-O-sulfateglucosamine]",effect on local LPS-induced inflammation relative to control,[5]; 50 ng/rat s.c. (FIG. 39),effective to suppress
same,effect on local LPS-induced inflammation relative to control,[5]; 200 ng/rat s.c. (FIG. 39),failed to provide a significant effect
"O=C(O)C1=C[C@H](O)[C@@H](O)[C@H](O[C@H]2[C@H](O)[C@@H](NS(=O)(=O)O)C(O)O[C@@H]2CO)O1 (stereo partly drawn) [H-1145, 4-deoxy-4-en-iduronic acid-(α-1,4)-2-deoxy-2-N-sulfateglucosamine]",“R” value,[2]; [7],0 % × (μg/gm)^−1
same,effect on DTH (printed in the Dose column),[2]; Table XXIIIA,N.E.
"CC(=O)NC1C(O)OC(COS(=O)(=O)O)C(OC2OC(C(=O)O)=CC(O)C2O)C1O (stereo not drawn) [H-8642, 4-deoxy-4-en-iduronic acid-(α-1,4)-2-deoxy-2-N-acetyl-6-O-sulfateglucosamine]",Bioassay of TNF Activity,[6],Inconsistent
same,“R” value,[2]; [7],0 % × (μg/gm)^−1
same,effect on DTH (printed in the Dose column),[2]; Table XXIIIA,N.E.
"CC(=O)N[C@H]1C(O)O[C@H](CO)[C@@H](O[C@@H]2OC(C(=O)O)=C[C@H](O)[C@H]2OS(=O)(=O)O)[C@@H]1O (stereo partly drawn) [H-8767, 2-O-sulfate-4-deoxy-4-en-iduronic acid-(α-1,4)-2-deoxy-2-N-acetylglucosamine]",Bioassay of TNF Activity,[6],Inconsistent
same,“R” value,[2]; [7],0 % × (μg/gm)^−1
same,effect on DTH (printed in the Dose column),[2]; Table XXIIIA,N.E.
"NC1C(O)OC(COS(=O)(=O)O)C(OC2OC(C(=O)O)=CC(O)C2OS(=O)(=O)O)C1O (stereo not drawn) [H-8892, 2-O-sulfate-4-deoxy-4-en-iduronic acid-(α-1,4)-2-deoxy-6-O-sulfateglucosamine]",Bioassay of TNF Activity,[6],No effect
same,“R” value,[6],0 % × (pg/ml)^−1
same,“R” value,[2]; [7],0 % × (μg/gm)^−1
same,effect on DTH (printed in the Dose column),[2]; Table XXIIIA,N.E.
"N[C@H]1C(O)O[C@H](COS(=O)(=O)O)[C@@H](O[C@@H]2OC(C(=O)O)=C[C@H](O)[C@H]2O)[C@@H]1O (stereo partly drawn) [H-9017, 4-Deoxy-4-en-iduronic acid-(α-1,4)-2-deoxy-6-O-sulfateglucosamine]",Bioassay of TNF Activity,[6],No effect
same,“R” value,[6],0 % × (pg/ml)^−1
same,“R” value,[2]; [7],0 % × (μg/gm)^−1
same,effect on DTH (printed in the Dose column),[2]; Table XXIIIA,N.E.
"N[C@H]1C(O)O[C@H](CO)[C@@H](O[C@@H]2OC(C(=O)O)=C[C@H](O)[C@H]2OS(=O)(=O)O)[C@@H]1O (stereo partly drawn) [H-9142, 2-O-sulfate-4-deoxy-4-en-iduronic acid-(α-1,4)-2-deoxyglucosamine]",Bioassay of TNF Activity,[6],Inconsistent
same,“R” value,[2]; [7],0 % × (μg/gm)^−1
same,effect on DTH (printed in the Dose column),[2]; Table XXIIIA,N.E.
"O=C(O)C1=C[C@H](O)[C@@H](OS(=O)(=O)O)[C@H](O[C@H]2[C@H](O)[C@@H](NS(=O)(=O)O)C(O)O[C@@H]2COS(=O)(=O)O)O1 (stereo partly drawn) [H-9267, 2-O-sulfate-4-deoxy-4-en-iduronic acid-(α-1,4)-2-deoxy-2-N-sulfate-6-O-sulfateglucosamine]",Bioassay of TNF Activity,[6],Inconsistent
same,“R” value,"[2]; Table XXIIIA, inhibition of DTH, s.c.",1.60 × 10^5 % × (μg/gm)^−1
"CC(=O)N[C@H]1C(O)O[C@H](COS(=O)(=O)O)[C@@H](O[C@@H]2OC(C(=O)O)=C[C@H](O)[C@H]2OS(=O)(=O)O)[C@@H]1O (stereo partly drawn) [H-9517, 2-O-sulfate-4-deoxy-4-en-iduronic acid-(α-1,4)-2-deoxy-2-N-acetyl-6-O-sulfateglucosamine]",Bioassay of TNF Activity,[6],Inconsistent^c
"CC(=O)N[C@H]1C(O)O[C@H](CO)[C@@H](O)[C@@H]1O (stereo partly shown) [NAc-GlcN, N-Acetylglucosamine, reference compound]",effect on DTH (printed in the Dose column),[2]; Table XXIIIC,N.E.
"C[C@@H]1C[C@H]2[C@@H]3CCC4=CC(=O)C=C[C@]4(C)[C@@]3(F)[C@@H](O)C[C@]2(C)[C@@]1(O)C(=O)COP(=O)(O)O [dexamethasone phosphate, reference compound]",course of AA after treatment was ended,"[1]; treatment from day 12, dexamethasone phosphate daily or weekly, disaccharide weekly",suffered a relapse
same,severity of the AA score at 30 days post-induction,"[1]; weekly s.c. from day 12, dexamethasone phosphate 100 μg or disaccharide 120 ng per rat (FIG. 38G)",only a moderate reduction in the severity of the AA score

# Source: patent US7332480B2, “Compositions for the regulation of cytokine activity” (Yeda Research and Development Co. Ltd., priority 1992, dated 2008)
